Test results: BindingDB's records for doi:10.1021/jm070299x (Bristol Myers Squibb, 2007)

Molecular target: Inosine-5'-monophosphate dehydrogenase 2 (Homo sapiens, UniProt P12268)
Test: IMPDH2 Enzyme Inhibition and Human T-Lymphoblast (CEM) Proliferation Inhibition Assays
Conditions: pH 8, 25 °C
Method: Inhibition assays were performed using recombinant human IMPDH type 2 and varying concentrations of inhibitor. The production of NADH was monitored by following changes in absorbance at 340 nm. […] The in vivo activities of compounds were also evaluated the inhibition of T-cell proliferation in CEM lymphoblast cells. The EC50/IC50 values were calculated using a four-parameter logistic plot.

Structure (SMILES)	IC50 [nM]	IC50 (read-out: IC50) [nM]
CC(C)(NC(=O)c1cc2[nH]c3ccccc3c(=O)c2cc1F)c1ccccc1 [2-fluoro-9-oxo-N-(2-phenylpropan-2-yl)-9,10-dihydroacridine-3-carboxamide]	830	–
CC(C)(NC(=O)c1cc2[nH]c3ccccc3c(=O)c2cc1F)c1cnc2c(c1)OCCN2 [2-fluoro-9-oxo-N-(2-{2H,3H,4H-pyrido[3,2-b][1,4]oxazin-7-yl}propan-2-yl)-9,10-dihydroacridine-3-carboxamide]	920	–
CC(C)(NC(=O)c1cc2[nH]c3ccccc3c(=O)c2cc1F)c1ccccn1 [2-fluoro-9-oxo-N-[2-(pyridin-2-yl)propan-2-yl]-9,10-dihydroacridine-3-carboxamide]	1000	–
CC(C)(NC(=O)c1cc2[nH]c3ccccc3c(=O)c2cc1F)c1cccnc1 [2-fluoro-9-oxo-N-[2-(pyridin-3-yl)propan-2-yl]-9,10-dihydroacridine-3-carboxamide]	420	–
CC(C)(NC(=O)c1cc2[nH]c3ccccc3c(=O)c2cc1F)c1cccc(S(C)(=O)=O)c1 [2-fluoro-N-[2-(3-methanesulfonylphenyl)propan-2-yl]-9-oxo-9,10-dihydroacridine-3-carboxamide]	580	–
CC(C)(NC(=O)c1cc2[nH]c3ccccc3c(=O)c2cc1F)c1ccc(S(C)(=O)=O)cc1 [2-fluoro-N-[2-(4-methanesulfonylphenyl)propan-2-yl]-9-oxo-9,10-dihydroacridine-3-carboxamide]	480	–
Cc1ccc(C(C)(C)NC(=O)c2cc3[nH]c4ccccc4c(=O)c3cc2F)cn1 [2-fluoro-N-[2-(6-methylpyridin-3-yl)propan-2-yl]-9-oxo-9,10-dihydroacridine-3-carboxamide]	750	–
COc1cc(C(C)(C)NC(=O)c2cc3[nH]c4ccccc4c(=O)c3cc2F)cnc1N1CCOCC1 [2-fluoro-N-{2-[5-methoxy-6-(morpholin-4-yl)pyridin-3-yl]propan-2-yl}-9-oxo-9,10-dihydroacridine-3-carboxamide]	810	–
Cc1cc(C(C)(C)NC(=O)c2cc3[nH]c4ccccc4c(=O)c3cc2F)cnc1N1CCOCC1 [2-fluoro-N-{2-[5-methyl-6-(morpholin-4-yl)pyridin-3-yl]propan-2-yl}-9-oxo-9,10-dihydroacridine-3-carboxamide]	870	–
CC(C)(NC(=O)c1cc2[nH]c3ccccc3c(=O)c2cc1F)c1ccc(N2CCOCC2)nc1 [2-fluoro-N-{2-[6-(morpholin-4-yl)pyridin-3-yl]propan-2-yl}-9-oxo-9,10-dihydroacridine-3-carboxamide]	660	–
CC(C)(NC(=O)c1ccc2c(=O)c3ccccc3[nH]c2c1)c1ccccc1 [9-oxo-N-(2-phenylpropan-2-yl)-9,10-dihydroacridine-3-carboxamide]	2100	–
CC(C)(NC(=O)c1ccc2c(=O)c3ccccc3[nH]c2c1)c1ccccn1 [9-oxo-N-[2-(pyridin-2-yl)propan-2-yl]-9,10-dihydroacridine-3-carboxamide]	2200	–
CC(C)(NC(=O)c1ccc2c(=O)c3ccccc3[nH]c2c1)c1cccnc1 [9-oxo-N-[2-(pyridin-3-yl)propan-2-yl]-9,10-dihydroacridine-3-carboxamide]	2200	–
CC(C)(NC(=O)c1ccc2c(=O)c3ccccc3[nH]c2c1)c1ccncc1 [9-oxo-N-[2-(pyridin-4-yl)propan-2-yl]-9,10-dihydroacridine-3-carboxamide]	2300	–
CCN1CCN(c2ccc(C(C)(C)NC(=O)c3cc4[nH]c5ccccc5c(=O)c4cc3F)cn2)CC1 [Acridone-Based Inhibitor, 4m]	770	–
CN(C)CCOc1ccc(C(C)(C)NC(=O)c2cc3[nH]c4ccccc4c(=O)c3cc2F)cc1 [N-(2-{4-[2-(dimethylamino)ethoxy]phenyl}propan-2-yl)-2-fluoro-9-oxo-9,10-dihydroacridine-3-carboxamide]	560	–
CC(C)(C)NC(=O)c1ccc2c(=O)c3ccccc3[nH]c2c1 [N-tert-butyl-9-oxo-9,10-dihydroacridine-3-carboxamide]	3300	–
CN(C)c1cc(C(C)(C)NC(=O)c2cc3[nH]c4ccccc4c(=O)c3cc2F)ccn1 [N-{2-[2-(dimethylamino)pyridin-4-yl]propan-2-yl}-2-fluoro-9-oxo-9,10-dihydroacridine-3-carboxamide]	640	–
CN(C)S(=O)(=O)c1cccc(C(C)(C)NC(=O)c2cc3[nH]c4ccccc4c(=O)c3cc2F)c1 [N-{2-[3-(dimethylsulfamoyl)phenyl]propan-2-yl}-2-fluoro-9-oxo-9,10-dihydroacridine-3-carboxamide]	380	–
CN(C)S(=O)(=O)c1ccc(C(C)(C)NC(=O)c2cc3[nH]c4ccccc4c(=O)c3cc2F)cc1 [N-{2-[4-(dimethylsulfamoyl)phenyl]propan-2-yl}-2-fluoro-9-oxo-9,10-dihydroacridine-3-carboxamide]	660	–
CN(C)c1ccc(C(C)(C)NC(=O)c2cc3[nH]c4ccccc4c(=O)c3cc2F)cn1 [N-{2-[6-(dimethylamino)pyridin-3-yl]propan-2-yl}-2-fluoro-9-oxo-9,10-dihydroacridine-3-carboxamide]	850	–
CCOC(=O)c1ccc2c(=O)c3ccccc3[nH]c2c1 [ethyl 9-oxo-9,10-dihydroacridine-3-carboxylate]	> 10000	59
